From patent publication US20230277661A1, “TREATMENT OF CANCER USING A CEA CD3 BISPECIFIC ANTIBODY AND A TGFbeta SIGNALING INHIBITOR” (Hoffmann-La Roche Inc., priority 2020, published 2023)
Read-outs that look alike come from different tables or passages of the source.

Legend:
[1] = test system: PDOs that stably express high CEA levels; experiment: PDO and ex vivo CD8 T-cell co-culture with TGFβ inhibitor galunisertib; type: cell-based, human; conditions: galunisertib 5 μM or 10 μM; TGFβ 10 ng/ml; cibisatamab 20 nM; ex vivo CD8 T cells, E:T 1:1; two PDO models
Protocol: PDOs that stably express high CEA levels were combined with ex vivo allogeneic CD8 T cells isolated from healthy donor PBMCs in a 2D co-culture at an effector:target (E:T) ratio of 1:1. T cells were preincubated with TGFβ (10 ng/ml) prior to adding either DP47 or cibisatamab treatment with or without TGFβ inhibitor galunisertib.
The growth of GFP PDOs was tracked by monitoring changes in confluency with fluorescence microscopy and efficacy of the combination therapy assessed by comparing growth reduction from single therapy and combined therapy conditions.
Ex vivo CD8 T cells were isolated from PBMCs as described above and pre-incubated with TGFβ (10 ng/ml) for 72 hours before being combined with tumour cells that were seeded 24 hours before at a density of 5000 tumour cells per well in a 96 well plate as described above (E:T 1:1). On the same day (day 0) the co-culture was treated with either 20 nM of cibisatamab or 20 nM of the untargeted negative control antibody DP47-TCB +/− TGFβ ([…]) +/− galunisertib (5 μM or 10 μM, Tocris). All conditions were plated in triplicates.
(§1) The GFP confluence was quantified every 48-96 hrs over a 12-day period using the GFP confluence application on the Celigo Imaging Cytometer (Nexcelom Bioscience). […] In order to calculate the percentage of growth reduction, the fold change of growth from day 0 to day 12 was calculated and 1 was subtracted. […]

[2] = test system: patient-derived colorectal cancer organoid lines (PDOs) with high cell surface CEA expression levels; experiment: PDO growth in co-culture with CD8 or CD4 T cells (GFP confluence); type: cell-based, human
Protocol: Three patient-derived colorectal cancer organoid lines (PDOs) with high cell surface CEA expression levels were treated with cibisatamab (20 nM) or the corresponding untargeted control antibody DP47-TCB (see SEQ ID NOs 21 and 22 for VH and VL regions, respectively) (20 nM) either in the presence or absence of recombinant TGFβ1 (10 ng/ml) during 12 days of co-culture with allogeneic CD8 T cells at an Effector:Target ratio of […] (FIG. 1A). Growth of the nuclear GFP labelled organoid cells was monitored by fluorescent microscopy. CD8 T cells had been generated from allogeneic healthy donor cells by extracting peripheral blood mononuclear (PBMCs) cells followed by stimulation with IL-2 and CD3/CD28-beads and expansion in vitro. CD8 T cells and PDOs +/− TGFβ (10 ng/ml) were pre-incubated together for 72 hours prior to the addition of cibisatamab or DP47-TCB.
The same experiment was repeated using two PDO lines and CD4 T cells instead of CD8 T cells (FIG. 1B). CD4+CD25-T cells were isolated from allogeneic healthy donor PBMCs and expanded in vitro as described above.
The initial screen was generated with in vitro expanded and pre-activated CD8 T-cells. […]
In order to calculate the growth of cibisatamab treated PDOs relative to DP47-TCB treated PDOs, the fold change of growth from day 0 to day 12 was calculated and 1 was subtracted. […]
PDOs were harvested with TrypLE Express and neutralised with DMEM/F12 Ham medium (Sigma Aldrich) with 10% FBS. Cells were filtered through a 70 μm filter, counted and re-suspended in RPMI medium (Thermo Fisher) supplemented with 10% FBS (Labtech), 1X Glutamax and 100 units penicillin-streptomycin. […]
as §1

CD8 T-cells = experiment: FACS analysis of CD8 T-cells co-cultured with PDOs; type: cell-based, human; conditions: 8 days co-culture with PDOs during CEA-TCB treatment; flow cytometry
Protocol: FIG. 3. Effect of TGFβ on granzyme expression and proliferation of CD8 T-cells. (A) Granzyme expression in ex vivo CD8 T-cells determined by flow cytometry after 8 days of co-culture with a high cell surface CEA expressing PDO. (B) Proliferation of ex vivo CD8 T-cells treated with either DP47-TCB or cibisatamab assessed by flow cytometry after 8 days of co-culture with a high cell surface CEA expressing PDO. (C) Same as (B) except that co-culture was treated with recombinant TGFβ.
Thus, TGFβ potently suppresses cibisatamab mediated tumor control by blocking proliferation and effector functions.

[3] = test system: CEA expressing metastatic CRCs; conditions: cited from earlier work

With `Cc1cccc(-c2nn3c(c2-c2ccnc4ccc(C(N)=O)cc24)CCC3)n1` [Galunisertib, 4-(5,6-Dihydro-2-(6-methyl-2-pyridinyl)-4H-pyrrolo(1,2-b)pyrazol-3-yl)-6-quinolinecarboxamide] the “reversal of TGFβ effects on cibisatamab activity (PDO growth)” value [1] was “strongly reduced TGFβ effects”.

For “TGFβ: recombinant TGFβ1 (10 ng/ml, R&D Systems) added to the co-cultures as immunosuppressive factor”, the “growth of cibisatamab treated PDOs compared to PDOs treated with cibisatamab alone” value ([2]; TGFβ 10 ng/ml added, day 12, CD8 and CD4 T cells) was “increased the growth of cibisatamab treated PDOs”, the “effect of TGFβ on efficacy of cibisatamab” value ([2]; TGFβ1 10 ng/ml, cibisatamab 20 nM, CD8 and CD4 T cells, 12 days co-culture) was “impaired the efficacy of cibisatamab” and the T-cell granzyme expression (CD8 T-cells) was “strongly reduced”. For the same molecule, the “proliferation of T-cells” value (CD8 T-cells) was “strongly reduced”.

B1: cibisatamab: T-cell activating bispecific antibody targeting carcinoembryonic antigen (CEA) on tumor cells and CD3 on T-cells (antibody, chains of the INN, looked up, V domains shown)
VH: QVQLVQSGAEVKKPGASVKVSCKASGYTFTEFGMNWVRQAPGQGLEWMGWINTKTGEATYVEEFKGRVTFTTDTSTSTAYMELRSLRSDDTAVYYCARWDFAYYVEAMDYWGQGTTVTVSS
VL: DIQMTQSPSSLSASVGDRVTITCKASAAVGTYVAWYQQKPGKAPKLLIYSASYRKRGVPSRFSGSGSGTDFTLTISSLQPEDFATYYCHQYYTYPLFTFGQGTKLEIK
VH2: B1 VH
VL2: QAVVTQEPSLTVSPGGTVTLTCGSSTGAVTTSNYANWVQEKPGQAFRGLIGGTNKRAPGTPARFSGSLLGGKAALTLSGAQPEDEAEYYCALWYSNLWVFGGGTKLTVL
In the case of B1, the “growth of PDOs relative to DP47-TCB treated (control) PDOs” value ([2]; cibisatamab 20 nM, day 12, CD8 or CD4 T cells) is given as “reduced the growth of PDOs”, the “antitumor activity with radiological shrinkage, share of patients” value ([3]; in combination with PD-L1-inhibiting antibodies, 5/10) is given as 50% and the “antitumor activity with radiological shrinkage, share of patients” value ([3]; monotherapy, patients had failed at least two prior chemotherapy regimens, 4/36) is given as 11%.
